# Values of other authors, collected in patent publication US20190167601A1, “APPARATUS AND METHOD FOR ZERO ORDER DRUG DELIVERY FROM MULTILAYER AMPHIPHILIC CO-NETWORKS” (The University of Akron, priority 2016, published 2019).
# Counter-ions that a name gives are not always drawn.
row,maximum drug solubility in water [µg/mL],SMILES
1,8000,CC(C)OC(=O)CCC/C=C\C[C@@H]1[C@@H](CC[C@@H](O)CCc2ccccc2)[C@H](O)C[C@@H]1O [Latanoprost]
2,168,COc1c(N2C[C@@H]3CCCN[C@@H]3C2)c(F)cc2c(=O)c(C(=O)O)cn(C3CC3)c12 [Moxifloxacin Hydrochloride]
